According to ChEMBL document CHEMBL3885881, “DrugMatrix”:
“And” between values parts separate entries of the source, which are not always exact repeats. Equal values may be shown once.

Species: Rattus norvegicus
Experiment: DrugMatrix - Regimen: Daily Repeat
Format: toxicity, organism-based, Sprague-Dawley
Parameters: regimen Daily Repeat, gender Male, age 6-8 weeks
Conditions: in vivo, po, route oral GAVAGE, vehicle .5 % CMC; for ABSOLUTE BASOPHIL / ABSOLUTE LYMPHOCYTE / ABSOLUTE MONOCYTE / ABSOLUTE SEGMENTED NEUTROPHIL / BASOPHIL / EOSINOPHIL / ERYTHROCYTE COUNT / HEMATOCRIT / HEMOGLOBIN / LEUKOCYTE COUNT / LYMPHOCYTE / MEAN CORPUSCULAR HEMOGLOBIN / MEAN CORPUSCULAR HEMOGLOBIN CONCENTRATION / MEAN CORPUSCULAR VOLUME / MONOCYTE / NEUTROPHIL / PLATELET COUNT / ABSOLUTE EOSINOPHIL / NUCLEATED RED BLOOD CELLS: tissue Blood; for ALANINE AMINOTRANSFERASE / ALBUMIN / ALKALINE PHOSPHATASE / ASPARTATE AMINOTRANSFERASE / BLOOD UREA NITROGEN / CARBON DIOXIDE / CHLORIDE / CHOLESTEROL / CREATINE PHOSPHOKINASE / CREATININE / GLUCOSE / LIPASE / PHOSPHORUS / POTASSIUM / SODIUM / TOTAL BILIRUBIN / TOTAL PROTEIN / URIC ACID / LACTATE DEHYDROGENASE: tissue Plasma
[1] = 0 mg/kg, 72 h, dose level Control, time 3 day
[2] = 0 mg/kg, 120 h, dose level Control, time 5 day
[3] = 11 mg/kg, 72 h, dose level Low, time 3 day
[4] = 11 mg/kg, 120 h, dose level Low, time 5 day

## COc1ccc2c3c1O[C@H]1C[C@@H](O)C=C[C@@]31CCN(C)C2 [GALANTAMINE]
[1]
  ABSOLUTE BASOPHIL: 0 CELLS/uL
  ABSOLUTE LYMPHOCYTE: 15937.67 CELLS/uL and 12269.67 CELLS/uL
  ABSOLUTE MONOCYTE: 138.33 CELLS/uL and 160.33 CELLS/uL
  ABSOLUTE SEGMENTED NEUTROPHIL: 1443 CELLS/uL and 970 CELLS/uL
  BASOPHIL: 0%
  EOSINOPHIL: 0.33% and 0%
  ERYTHROCYTE COUNT: 5.45 x10E6/uL and 5.76 x10E6/uL
  HEMATOCRIT: 34.43% and 36.57%
  HEMOGLOBIN: 13.38 G/DL and 14.22 G/DL
  LEUKOCYTE COUNT: 17.57 x10E3/uL and 13.4 x10E3/uL
  LYMPHOCYTE: 90.33% and 91.67%
  MEAN CORPUSCULAR HEMOGLOBIN: 24.6 pg and 24.67 pg
  MEAN CORPUSCULAR HEMOGLOBIN CONCENTRATION: 38.88 G/DL and 38.85 G/DL
  MEAN CORPUSCULAR VOLUME: 63.27 fL and 63.52 fL
  MONOCYTE: 0.83% and 1.17%
  NEUTROPHIL: 8.5% and 7.17%
  PLATELET COUNT: 1298 x10E3/uL and 1250.83 x10E3/uL
  ALANINE AMINOTRANSFERASE: 47.67 u/L and 49.17 u/L
  ALBUMIN: 4.18 G/DL and 4.33 G/DL
  ALKALINE PHOSPHATASE: 398.5 u/L and 378.5 u/L
  ASPARTATE AMINOTRANSFERASE: 93.17 u/L and 82.17 u/L
  BLOOD UREA NITROGEN: 16 mg/dL and 15 mg/dL
  CARBON DIOXIDE: 29.17 mmol/L and 34.33 mmol/L
  CHLORIDE: 98.17 MEQ/L and 99.17 MEQ/L
  CHOLESTEROL: 68.83 mg/dL and 71.17 mg/dL
  CREATINE PHOSPHOKINASE: 467.33 u/L and 258.67 u/L
  CREATININE: 0.14 mg/dL and 0.18 mg/dL
  GLUCOSE: 151.67 mg/dL and 142.67 mg/dL
  LIPASE: 9.33 u/L and 9 u/L
  PHOSPHORUS: 11.97 mg/dL and 11.67 mg/dL
  POTASSIUM: 6.43 MEQ/L and 7.13 MEQ/L
  SODIUM: 140.68 MEQ/L and 142.22 MEQ/L
  TOTAL BILIRUBIN: 0.18 mg/dL
  TOTAL PROTEIN: 5.82 G/DL and 5.77 G/DL
  URIC ACID: 1.48 mg/dL and 1.55 mg/dL
[2]
  ABSOLUTE BASOPHIL: 0 CELLS/uL
  ABSOLUTE EOSINOPHIL: 31 CELLS/uL and 23.33 CELLS/uL
  ABSOLUTE LYMPHOCYTE: 14327.83 CELLS/uL and 14943.67 CELLS/uL
  ABSOLUTE SEGMENTED NEUTROPHIL: 1321.67 CELLS/uL and 1084.33 CELLS/uL
  BASOPHIL: 0%
  EOSINOPHIL: 0.17%
  ERYTHROCYTE COUNT: 5.79 x10E6/uL and 5.71 x10E6/uL
  HEMATOCRIT: 36.1% and 35.28%
  HEMOGLOBIN: 14.15 G/DL and 14.27 G/DL
  LEUKOCYTE COUNT: 15.78 x10E3/uL and 16.08 x10E3/uL
  LYMPHOCYTE: 90.5% and 93%
  MEAN CORPUSCULAR HEMOGLOBIN: 24.48 pg and 25.02 pg
  MEAN CORPUSCULAR HEMOGLOBIN CONCENTRATION: 39.22 G/DL and 40.43 G/DL
  MEAN CORPUSCULAR VOLUME: 62.4 fL and 61.82 fL
  MONOCYTE: 0.67% and 0.17%
  NEUTROPHIL: 8.67% and 6.67%
  NUCLEATED RED BLOOD CELLS: 0.17 /100WBC and 0.33 /100WBC
  PLATELET COUNT: 1211.67 x10E3/uL and 1274 x10E3/uL
  ALANINE AMINOTRANSFERASE: 49 u/L and 54.17 u/L
  ALBUMIN: 4.27 G/DL and 4.22 G/DL
  ALKALINE PHOSPHATASE: 356.67 u/L and 373.17 u/L
  ASPARTATE AMINOTRANSFERASE: 90.17 u/L and 81.83 u/L
  BLOOD UREA NITROGEN: 20.5 mg/dL and 16.67 mg/dL
  CARBON DIOXIDE: 29.17 mmol/L and 30.33 mmol/L
  CHLORIDE: 98 MEQ/L and 99 MEQ/L
  CHOLESTEROL: 69.83 mg/dL and 71 mg/dL
  CREATINE PHOSPHOKINASE: 312 u/L and 273.5 u/L
  CREATININE: 0.21 mg/dL and 0.22 mg/dL
  GLUCOSE: 149.83 mg/dL and 141.83 mg/dL
  LACTATE DEHYDROGENASE: 322 u/L and 153.67 u/L
  LIPASE: 10 u/L and 10.33 u/L
  PHOSPHORUS: 12 mg/dL and 11.38 mg/dL
  POTASSIUM: 6.75 MEQ/L and 7.08 MEQ/L
  SODIUM: 142.8 MEQ/L and 142.75 MEQ/L
  TOTAL BILIRUBIN: 0.17 mg/dL and 0.18 mg/dL
  TOTAL PROTEIN: 6.1 G/DL
  URIC ACID: 1.68 mg/dL and 1.67 mg/dL
[3]
  ABSOLUTE BASOPHIL: 0 CELLS/uL
  ABSOLUTE EOSINOPHIL: 71.33 CELLS/uL
  ABSOLUTE LYMPHOCYTE: 10973.33 CELLS/uL
  ABSOLUTE MONOCYTE: 201 CELLS/uL
  ABSOLUTE SEGMENTED NEUTROPHIL: 1221 CELLS/uL
  BASOPHIL: 0%
  EOSINOPHIL: 0.67%
  ERYTHROCYTE COUNT: 5.6 x10E6/uL
  HEMATOCRIT: 35.33%
  HEMOGLOBIN: 13.47 G/DL
  LEUKOCYTE COUNT: 12.47 x10E3/uL
  LYMPHOCYTE: 87.67%
  MEAN CORPUSCULAR HEMOGLOBIN: 24.1 pg
  MEAN CORPUSCULAR HEMOGLOBIN CONCENTRATION: 38.13 G/DL
  MEAN CORPUSCULAR VOLUME: 63.17 fL
  MONOCYTE: 1.67%
  NEUTROPHIL: 10%
  NUCLEATED RED BLOOD CELLS: 0 /100WBC
  PLATELET COUNT: 1277.67 x10E3/uL
  ALANINE AMINOTRANSFERASE: 46.67 u/L
  ALBUMIN: 4.13 G/DL
  ALKALINE PHOSPHATASE: 368.33 u/L
  ASPARTATE AMINOTRANSFERASE: 76.33 u/L
  BLOOD UREA NITROGEN: 17 mg/dL
  CARBON DIOXIDE: 29.67 mmol/L
  CHLORIDE: 98.33 MEQ/L
  CHOLESTEROL: 76.33 mg/dL
  CREATINE PHOSPHOKINASE: 222.67 u/L
  CREATININE: 0.18 mg/dL
  GLUCOSE: 154.33 mg/dL
  LACTATE DEHYDROGENASE: 192 u/L
  LIPASE: 9.67 u/L
  PHOSPHORUS: 12.47 mg/dL
  POTASSIUM: 6.58 MEQ/L
  SODIUM: 142 MEQ/L
  TOTAL BILIRUBIN: 0.2 mg/dL
  TOTAL PROTEIN: 5.83 G/DL
  URIC ACID: 1.5 mg/dL
[4]
  ABSOLUTE BASOPHIL: 0 CELLS/uL
  ABSOLUTE EOSINOPHIL: 0 CELLS/uL
